From patent US9617256B2 (priority 2007, dated 2017)
In brackets after ≈: the same amount, converted by molar mass.

Assays:
APAE001 (ATCC27853) = experiment: MIC broth microdilution, APAE001; type: cell-based, P. aeruginosa; settings: Pseudomonas aeruginosa, ATCC27853, read-out: MIC APAE001, APAE001 is ATCC27853
In short: (§1)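 Incubation: 35° C., ambient air, 18-24 h. Medium: cation-adjusted Mueller-Hinton broth with 2-fold serial dilutions of drug. Inoculum: 3×10^5–7×10^5 CFU/mL final, per CLSI microdilution method.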

[1] = tested on: APAE006 (strain of P. aeruginosa in which all efflux pumps are inactivated); experiment: microbe, parasite or virus in culture; type: cell-based; settings: Pseudomonas aeruginosa, read-out: MIC APAE006, P. aeruginosa, all efflux pumps inactivated
In short: (§2)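 Broth microdilution (CLSI); CA-MHB; 3×10^5–7×10^5 CFU/mL final; 2-fold dilutions; 35° C., ambient air, 18-24 h. APAE006 lacks all active efflux pumps.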

[2] = tested on: ASAU001 (laboratory strain of S. aureus, ATCC29213); experiment: MIC broth microdilution, ASAU001; type: cell-based; settings: Staphylococcus aureus, ATCC29213, read-out: MIC ASAU001
In short: as §1

[3] = tested on: AABA1060 (clinical isolate of Acinetobacter baumannii); experiment: MIC broth microdilution, AABA1060; type: cell-based; settings: Acinetobacter baumannii, read-out: MIC AABA1060
In short: as §1

AECO001 HSA AGP = experiment: MIC broth microdilution, AECO001 HSA AGP; type: cell-based, E. coli; settings: Escherichia coli
In short: as §1

AECO001 (ATCC25922) = experiment: MIC broth microdilution, AECO001; type: cell-based, E. coli; settings: Escherichia coli, ATCC25922, read-out: MIC AECO001
In short: as §1

[4] = tested on: APAE006 in the presence of 8 micrograms per milliliter of polymyxin B nonapeptide; type: cell-based, P. aeruginosa; settings: in the presence of 8 micrograms per milliliter of polymyxin B nonapeptide
In short: as §2

[5] = tested on: AECO063 (ATCC25922 bearing an acrAB mutation); experiment: microbe, parasite or virus in culture; type: cell-based, E. coli; settings: Escherichia coli, ATCC25922, read-out: MIC AECO063
In short: as §1

Row | Structure (SMILES) | MIC (APAE001 (ATCC27853)) | MIC [1] | MIC [2] | MIC [3] | MIC (AECO001 HSA AGP) | MIC (AECO001 (ATCC25922)) | MIC APAE006 + PMBN [4] | MIC [5]
1 | CN(C)CC(=O)NC[C@H](NC(=O)c1ccc(/C=C/C#Cc2ccc(CN3CCOCC3)cc2)cc1)C(=O)NO [Example 111-2] | 2 to 16 µg/mL (≈ 3.75 to 30 µM) | < 2 µg/mL | 16 to 64 µg/mL (≈ 30 to 120 µM) | 2 to 16 µg/mL (≈ 3.75 to 30 µM) | 2 to 16 µg/mL (≈ 3.75 to 30 µM) | 2 to 16 µg/mL (≈ 3.75 to 30 µM) | A (MIC's of 2.0 μg/mL or less = A) | < 2 µg/mL
2 | CC(=O)NC[C@H](NC(=O)c1ccc(/C=C/C#Cc2ccc(CN3CCOCC3)cc2)cc1)C(=O)NO [Example 111-3, N-[2-acetylamino-1-((S)-hydroxycarbamoyl)-ethyl]-4-[(E)-4-(4-morpholin-4-ylmethyl-phenyl)-but-1-en-3-ynyl]-] | 2 to 16 µg/mL (≈ 4.08 to 32.6 µM) | < 2 µg/mL | > 64 µg/mL | 2 to 16 µg/mL (≈ 4.08 to 32.6 µM) | 2 to 16 µg/mL (≈ 4.08 to 32.6 µM) | < 2 µg/mL | A (MIC's of 2.0 μg/mL or less = A) | < 2 µg/mL
3 | C[C@@H](N)[C@H](NC(=O)c1ccc(/C=C/C#Cc2ccc(CO)cc2)cc1)C(=O)NO [Example 112-1] | < 2 µg/mL | < 2 µg/mL | > 64 µg/mL | 2 to 16 µg/mL (≈ 5.08 to 40.7 µM) | 16 to 64 µg/mL (≈ 40.7 to 163 µM) | < 2 µg/mL | A (MIC's of 2.0 μg/mL or less = A) | < 2 µg/mL
4 | NC[C@H](NC(=O)c1ccc(/C=C/C#Cc2ccc(CO)cc2)cc1)C(=O)NO [Example 112-2] | 2 to 16 µg/mL (≈ 5.27 to 42.2 µM) | < 2 µg/mL | > 64 µg/mL | > 64 µg/mL | 16 to 64 µg/mL (≈ 42.2 to 169 µM) | 2 to 16 µg/mL (≈ 5.27 to 42.2 µM) | A (MIC's of 2.0 μg/mL or less = A) | < 2 µg/mL
5 | C[C@@H](O)[C@H](NC(=O)c1ccc(/C=C/C#Cc2ccc(CO)cc2)cc1)C(=O)NO [Example 112-3] | 2 to 16 µg/mL (≈ 5.07 to 40.6 µM) | < 2 µg/mL | 16 to 64 µg/mL (≈ 40.6 to 162 µM) | 16 to 64 µg/mL (≈ 40.6 to 162 µM) | 16 to 64 µg/mL (≈ 40.6 to 162 µM) | < 2 µg/mL | A (MIC's of 2.0 μg/mL or less = A) | < 2 µg/mL
6 | CO[C@H](C)[C@H](NC(=O)c1ccc(/C=C/C#Cc2ccc(CO)cc2)cc1)C(=O)NO [Example 112-4] | < 2 µg/mL | < 2 µg/mL | 16 to 64 µg/mL (≈ 39.2 to 157 µM) | < 2 µg/mL | 2 to 16 µg/mL (≈ 4.9 to 39.2 µM) | < 2 µg/mL | A (MIC's of 2.0 μg/mL or less = A) | < 2 µg/mL
7 | CC(C)(O)[C@H](NC(=O)c1ccc(/C=C/C#Cc2ccc(CO)cc2)cc1)C(=O)NO [Example 112-5] | < 2 µg/mL | < 2 µg/mL | 16 to 64 µg/mL (≈ 39.2 to 157 µM) | < 2 µg/mL | 2 to 16 µg/mL (≈ 4.9 to 39.2 µM) | < 2 µg/mL | A (MIC's of 2.0 μg/mL or less = A) | < 2 µg/mL
8 | NC[C@H](NC(=O)c1ccc(/C=C/C#Cc2ccc(CNC3CC3)cc2)cc1)C(=O)NO [Example 113-1] | 2 to 16 µg/mL (≈ 4.78 to 38.2 µM) | < 2 µg/mL | > 64 µg/mL | 16 to 64 µg/mL (≈ 38.2 to 153 µM) | 2 to 16 µg/mL (≈ 4.78 to 38.2 µM) | < 2 µg/mL | A (MIC's of 2.0 μg/mL or less = A) | < 2 µg/mL
9 | C[C@@H](N)[C@H](NC(=O)c1ccc(/C=C/C#Cc2ccc(CNC3CC3)cc2)cc1)C(=O)NO [Example 113-2] | < 2 µg/mL | < 2 µg/mL | > 64 µg/mL | 2 to 16 µg/mL (≈ 4.62 to 37 µM) | 2 to 16 µg/mL (≈ 4.62 to 37 µM) | < 2 µg/mL | A (MIC's of 2.0 μg/mL or less = A) | < 2 µg/mL
10 | C[C@@H](O)[C@H](NC(=O)c1ccc(/C=C/C#Cc2ccc(CNC3CC3)cc2)cc1)C(=O)NO [Example 113-3] | 2 to 16 µg/mL (≈ 4.61 to 36.9 µM) | < 2 µg/mL | > 64 µg/mL | 2 to 16 µg/mL (≈ 4.61 to 36.9 µM) | 2 to 16 µg/mL (≈ 4.61 to 36.9 µM) | < 2 µg/mL | A (MIC's of 2.0 μg/mL or less = A) | < 2 µg/mL
11 | C[C@H](O)[C@H](NC(=O)c1ccc(/C=C/C#Cc2ccc(CNC3CC3)cc2)cc1)C(=O)NO [Example 113-4] | 2 to 16 µg/mL (≈ 4.61 to 36.9 µM) | < 2 µg/mL | > 64 µg/mL | 2 to 16 µg/mL (≈ 4.61 to 36.9 µM) | 2 to 16 µg/mL (≈ 4.61 to 36.9 µM) | < 2 µg/mL | A (MIC's of 2.0 μg/mL or less = A) | < 2 µg/mL
12 | CC(C)(O)[C@H](NC(=O)c1ccc(/C=C/C#Cc2ccc(CNC3CC3)cc2)cc1)C(=O)NO [Example 113-5] | < 2 µg/mL | < 2 µg/mL | 16 to 64 µg/mL (≈ 35.8 to 143 µM) | < 2 µg/mL | < 2 µg/mL | < 2 µg/mL | A (MIC's of 2.0 μg/mL or less = A) | < 2 µg/mL
